Laboratory results reported in patent US10759783B2, “Biaryl inhibitors of Bruton'S tyrosine kinase” (BIOGEN MA INC., priority 2013, dated 2020).

Legend:
BTK enzyme = biological target: T1, BTK enzyme (Homo sapiens, UniProt Q06187); test: In vitro BTK kinase assay: BTK-POLYGAT-LS assay; type: biochemical; details: ATP 10 μM, read-out: IC50 (10uMATP)
T1 construct: purchased Upstate 14-552
Method in brief: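 Human BTK activity was measured with final 10 μM ATP and 100 nM polyGAT substrate in pH 7.5 Tris buffer with 10 mM MgCl2, DTT, Triton X-100 and casein.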

[1] = biological target: BTK (phospho-BTK) in human whole blood (Homo sapiens, UniProt Q06187); test: In vitro PD assay in human whole blood (pBTK assay)
Sequence of BTK (phospho-BTK) in human whole blood (Q06187 whole entry): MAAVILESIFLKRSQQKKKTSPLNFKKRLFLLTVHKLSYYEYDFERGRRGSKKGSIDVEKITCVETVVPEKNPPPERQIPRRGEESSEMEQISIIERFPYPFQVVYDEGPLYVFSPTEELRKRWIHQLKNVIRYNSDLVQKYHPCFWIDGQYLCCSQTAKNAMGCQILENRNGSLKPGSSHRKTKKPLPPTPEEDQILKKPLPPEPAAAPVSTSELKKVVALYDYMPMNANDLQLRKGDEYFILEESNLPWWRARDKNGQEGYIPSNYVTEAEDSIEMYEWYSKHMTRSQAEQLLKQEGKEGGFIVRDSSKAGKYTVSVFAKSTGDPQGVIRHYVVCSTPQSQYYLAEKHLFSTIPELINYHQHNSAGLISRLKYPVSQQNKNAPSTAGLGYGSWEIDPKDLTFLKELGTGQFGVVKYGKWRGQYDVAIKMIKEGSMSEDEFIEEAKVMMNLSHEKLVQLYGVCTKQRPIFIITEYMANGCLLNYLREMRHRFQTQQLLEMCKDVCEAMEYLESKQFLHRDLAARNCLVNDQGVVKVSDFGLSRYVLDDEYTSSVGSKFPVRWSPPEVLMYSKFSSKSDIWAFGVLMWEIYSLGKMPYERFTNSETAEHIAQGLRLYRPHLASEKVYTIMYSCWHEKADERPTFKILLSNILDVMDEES

T1 sequence (Q06187 whole entry): as above

Structure (SMILES)	IC50 (BTK enzyme)	IC50 [1]
Cc1cc(-c2cc(Nc3cc4n(n3)CCN(C)C4C)ncn2)ccc1CNC(=O)c1cnc(C(C)(C)C)s1 (stereo not shown) [Example I-283, 2-tert-butyl-N-[[4-[6-[(4,5-dimethyl-6,7-dihydro-4H-pyrazolo[1,5-a]pyrazin-2-yl)amino]pyrimidin-4-yl]-2-methyl-phenyl]methyl]thiazole-5-carboxamide]	< 0.01 µM	< 0.5 µM
Cc1cc(-c2ccnc(Nc3cnn(C4CCN(S(C)(=O)=O)CC4)c3)n2)ccc1CNC(=O)c1cnc(C(C)(C)C)s1 [Example I-47, 2-(tert-butyl)-N-(2-methyl-4-(2-((1-(1-(methylsulfonyl)piperidin-4-yl)-1H-pyrazol-4-yl)amino)pyrimidin-4-yl)benzyl)thiazole-5-carboxamide]	< 0.01 µM	0.5 to 1.5 µM
Cc1cc(-c2ccnc(Nc3cnn(C)c3)n2)ccc1CNC(=O)c1ccn(C(C)(C)C)n1 [Example I-252, 1-tert-butyl-N-[[2-methyl-4-[2-[(1-methylpyrazol-4-yl)amino]pyrimidin-4-yl]phenyl]methyl]pyrazole-3-carboxamide]	< 0.01 µM	< 0.5 µM
COCCn1cc(Nc2nccc(-c3ccc(CNC(=O)N4CCC(C(C)C)C4)c(C(F)(F)F)c3)n2)cn1 (stereo not shown) [Example I-317, 3-isopropyl-N-[[4-[2-[[1-(2-methoxyethyl)pyrazol-4-yl]amino]pyrimidin-4-yl]-2-(trifluoromethyl)phenyl]methyl]pyrrolidine-1-carboxamide]	< 0.01 µM	< 0.5 µM
Cc1cc(-c2cc(Nc3cc4n(n3)CC(=O)N(C)C4)ncn2)ccc1CNC(=O)N1CCC(C(C)(C)C)C1 (stereo not shown) [Example I-281, 3-tert-butyl-N-[[2-methyl-4-[6-[(5-methyl-6-oxo-4,7-dihydropyrazolo[1,5-a]pyrazin-2-yl)amino]pyrimidin-4-yl]phenyl]methyl]pyrrolidine-1-carboxamide]	< 0.01 µM	< 0.5 µM
Cc1cc(-c2cc(Nc3cc4n(n3)CCCN(CCO)C4)ncn2)ccc1CNC(=O)N1CC(OC(C)C)C1 [Example I-274, N-[[4-[6-[[5-(2-hydroxyethyl)-4,6,7,8-tetrahydropyrazolo[1,5-a][1,4]diazepin-2-yl]amino]pyrimidin-4-yl]-2-methyl-phenyl]methyl]-3-isopropoxy-azetidine-1-carboxamide]	< 0.01 µM	< 0.5 µM
Cc1cc(-c2cc(Nc3cc4n(n3)CCN(C)C4)ncn2)ccc1CNC(=O)c1cc(C(C)(C)C)on1 [Example I-265, 5-tert-butyl-N-[[2-methyl-4-[6-[(5-methyl-6,7-dihydro-4H-pyrazolo[1,5-a]pyrazin-2-yl)amino]pyrimidin-4-yl]phenyl]methyl]isoxazole-3-carboxamide]	< 0.01 µM	< 0.5 µM
Cc1cc(-c2ccnc(Nc3cnn(C4CC(C(=O)O)C4)c3)n2)ccc1CNC(=O)c1cnc(C(C)(C)C)s1 (stereo not shown) [Example I-44, 3-(4-((4-(4-((2-(tert-butyl)thiazole-5-carboxamido)methyl)-3-methylphenyl)pyrimidin-2-yl)amino)-1H-pyrazol-1-yl)cyclobutanecarboxylic acid]	< 0.01 µM	< 0.5 µM
CC(C)OC1CN(C(=O)NC2CCCCc3cc(-c4ccnc(Nc5cnn([C@@H]6CCOC6)c5)n4)ccc32)C1 (stereo partly drawn) [Example I-333, 3-isopropoxy-N-[2-[2-[[1-[(3R)-tetrahydrofuran-3-yl]pyrazol-4-yl]amino]pyrimidin-4-yl]-6,7,8,9-tetrahydro-5H-benzo[7]annulen-5-yl]azetidine-1-carboxamide]	< 0.01 µM	< 0.5 µM
Cc1cc(-c2ccnc(Nc3cnn(C(C)(C)C(=O)NCC(F)(F)F)c3)n2)ccc1CNC(=O)N1CC(OC(C)C)C1 [Example I-312, N-[[4-[2-[[1-[1,1-dimethyl-2-oxo-2-(2,2,2-trifluoroethylamino)ethyl]pyrazol-4-yl]amino]pyrimidin-4-yl]-2-methyl-phenyl]methyl]-3-isopropoxy-azetidine-1-carboxamide]	< 0.01 µM	< 0.5 µM
COCCc1cc(-c2ccnc(Nc3cnn4c3CCC4)n2)ccc1CNC(=O)N1CC[C@@H](C(C)(C)C)C1 [Example I-325, (3S)-3-tert-butyl-N-[[4-[2-(5,6-dihydro-4H-pyrrolo[1,2-b]pyrazol-3-ylamino)pyrimidin-4-yl]-2-(2-methoxyethyl)phenyl]methyl]pyrrolidine-1-carboxamide]	< 0.01 µM	< 0.5 µM
Cc1cc(-c2cc(Nc3ccn(C4CCN(C)CC4)n3)ncn2)ccc1CNC(=O)c1cnc(C(C)(C)C)s1 [Example I-358, 2-tert-butyl-N-[[2-methyl-4-[6-[[1-(1-methyl-4-piperidyl)pyrazol-3-yl]amino]pyrimidin-4-yl]phenyl]methyl]thiazole-5-carboxamide]	< 0.01 µM	< 0.5 µM
Cc1cc(-c2ccnc(Nc3cnn(C)c3)n2)ccc1CNC(=O)c1nc2c(s1)CCCC2 [Example I-9, N-(2-methyl-4-(2-((1-methyl-1H-pyrazol-4-yl)amino)pyrimidin-4-yl)benzyl)-4,5,6,7-tetrahydrobenzo[d]thiazole-2-carboxamide]	< 0.01 µM	0.5 to 1.5 µM
Cn1cc(Nc2nccc(-c3cc(Cl)c(CNC(=O)c4cnc(C(C)(C)C)s4)cc3F)n2)cn1 [Example I-118, 2-(tert-butyl)-N-(2-chloro-5-fluoro-4-(2-((1-methyl-1H-pyrazol-4-yl)amino)pyrimidin-4-yl)benzyl)thiazole-5-carboxamide]	< 0.01 µM	< 0.5 µM
Cn1cc(Nc2nccc(-c3ccc(CNC(=O)c4cnn(C(C)(C)C)c4)c(CCO)c3)n2)cn1 [Example I-191, 1-(tert-butyl)-N-(2-(2-hydroxyethyl)-4-(2-((1-methyl-1H-pyrazol-4-yl)amino)pyrimidin-4-yl)benzyl)-1H-pyrazole-4-carboxamide]	< 0.01 µM	< 0.5 µM
Cc1cc(-c2ccnc(Nc3cnn(C)c3C)n2)ccc1CNC(=O)N1CC(OC(C)(C)C)C1 [Example I-223, 3-(tert-butoxy)-N-(4-(2-((1,5-dimethyl-1H-pyrazol-4-yl)amino)pyrimidin-4-yl)-2-methylbenzyl)azetidine-1-carboxamide]	< 0.01 µM	0.5 to 1.5 µM
CC(C)(C)OC1CN(C(=O)NCc2ccc(-c3ccnc(Nc4cnn(C5CC5)c4)n3)cc2C(F)(F)F)C1 [Example I-294, 3-tert-butoxy-N-[[4-[2-[(1-cyclopropylpyrazol-4-yl)amino]pyrimidin-4-yl]-2-(trifluoromethyl)phenyl]methyl]azetidine-1-carboxamide]	< 0.01 µM	< 0.5 µM
Cc1cc(-c2ccnc(Nc3cnn(C(C)C)c3)n2)ccc1CNC(=O)c1cnn(C(C)(C)C)c1 [Example I-258, 1-tert-butyl-N-[[4-[2-[(1-isopropylpyrazol-4-yl)amino]pyrimidin-4-yl]-2-methyl-phenyl]methyl]pyrazole-4-carboxamide]	< 0.01 µM	< 0.5 µM
Cc1cc(-c2cc(Nc3cc4n(n3)CC(=O)N(C)C4)ncn2)ccc1CNC(=O)N1CC(OC(C)(C)C)C1 [Example I-239, 3-(tert-butoxy)-N-(2-methyl-4-(6-((5-methyl-6-oxo-4,5,6,7-tetrahydropyrazolo-[1,5-a]pyrazin-2-yl)amino)pyrimidin-4-yl)benzyl) azetidine-1-carboxamide]	< 0.01 µM	< 0.5 µM
CC(C)(C)C1CCN(C(=O)NC2CCCCc3cc(-c4ccnc(Nc5cnn(C6CCOCC6)c5)n4)ccc32)C1 (stereo not shown) [Example I-330, 3-tert-butyl-N-[2-[2-[(1-tetrahydropyran-4-ylpyrazol-4-yl)amino]pyrimidin-4-yl]-6,7,8,9-tetrahydro-5H-benzo[7]annulen-5-yl]pyrrolidine-1-carboxamide]	< 0.01 µM	< 0.5 µM
Cc1cc(-c2ccnc(Nc3cnn(C4CN(C)C4)c3)n2)ccc1CNC(=O)c1cnc(C(C)(C)C)s1 [Example I-43, 2-(tert-butyl)-N-(2-methyl-4-(2-((1-(1-methylazetidin-3-yl)-1H-pyrazol-4-yl)amino)pyrimidin-4-yl)benzyl)thiazole-5-carboxamide]	< 0.01 µM	< 0.5 µM
Cn1cc(Nc2nccc(-c3ccc4c(c3)CCCCC4NC(=O)N3CC(OC(C)(C)C)C3)n2)cn1 (stereo not shown) [Example I-163, 3-(tert-butoxy)-N-(2-(2-((1-methyl-H-pyrazol-4-yl)amino)pyrimidin-4-yl)-6,7,8,9-tetrahydro-5H-benzo[7]annulen-5-yl)azetidine-1-carboxamide]	< 0.01 µM	< 0.5 µM
COCCn1cc(Nc2nccc(-c3ccc(CNC(=O)N4CC(OC(C)C)C4)c(C(F)(F)F)c3)n2)cn1 [Example I-351, 3-isopropoxy-N-[[4-[2-[[1-(2-methoxyethyl)pyrazol-4-yl]amino]pyrimidin-4-yl]-2-(trifluoromethyl)phenyl]methyl]azetidine-1-carboxamide]	< 0.01 µM	< 0.5 µM
Cn1cc(Nc2nccc(-c3ccc(CNC(=O)N4CCC(C(C)(C)C)C4)c(C#N)c3)n2)cn1 (stereo not shown) [Example I-210, 3-(tert-butyl)-N-(2-cyano-4-(2-((1-methyl-1H-pyrazol-4-yl)amino)pyrimidin-4-yl)benzyl)pyrrolidine-1-carboxamide]	< 0.01 µM	< 0.5 µM
Cc1cc(-c2cc(Nc3ccc(N4CCN(C)CC4)cn3)ncn2)ccc1CNC(=O)N1CC(OC(C)(C)C)C1 [Example I-251, 3-tert-butoxy-N-[[2-methyl-4-[6-[[5-(4-methylpiperazin-1-yl)-2-pyridyl]amino]pyrimidin-4-yl]phenyl]methyl]azetidine-1-carboxamide]	< 0.01 µM	< 0.5 µM
Cc1cc(-c2cc(Nc3cc4n(n3)CC(C)N(C)C4)ncn2)ccc1CNC(=O)c1cnn(C(C)(C)C)c1 (stereo not shown) [Example I-280, 1-tert-butyl-N-[[4-[6-[(5,6-dimethyl-6,7-dihydro-4H-pyrazolo[1,5-a]pyrazin-2-yl)amino]pyrimidin-4-yl]-2-methyl-phenyl]methyl]pyrazole-4-carboxamide]	< 0.01 µM	< 0.5 µM
